Laboratory results taken from patent publication US20200093838A1, “METHODS FOR TREATING AND PREVENTING ALLERGIES AND ACUTE ALLERGIC RESPONSES” (priority 2015, published 2020).
Entries after “also recorded” stand apart in the source; their conditions may differ.

Assays:
[1] = tested on: sensitized and challenged CD8-deficient mice; conditions: inhibition of the enzymatic activity of CYP11A1; cited from earlier work
[2] = tested on: Cyp11a1; conditions: inhibition of the enzymatic activity of CYP11A1; cited from earlier work
[3] = tested on: CD4+ T cells from steroid-resistant asthmatics; conditions: 500 nM; cited from earlier work
[4] = tested on: Cyp11a1; assay: CYP11A1 immunoblot analyses of CD8+ T cells; type: cell-based, mouse; conditions: 100 nM or 1 μM during differentiation in IL-2+IL-4
Source text: J. Allergy Clin. Immunol. 121, 864-871 e864 (2008)). […] Samples were run by sodium dodecyl sulfate polyacrylamide gel electrophoresis (SDS-PAGE) and transferred to nitrocellulose membranes. […] Horseradish peroxidase-conjugated anti-rabbit IgG (GE Healthcare, Hertfordshire, UK) was used to detect CYP11A1 protein. Mouse monoclonal anti-β-actin antibody (Sigma-Aldrich, St. Louis, Mo.) was used as an internal control. Immunoreactive bands were quantified by densitometric quantification of autoradiographs using Image J (NIMH, Bethesda, Md.), and expressed as relative CYP11A1 normalized to β-actin (Sigma-Aldrich, St. Louis, Mo.).

[5] = tested on: CD8+ T cells; assay: Intracellular staining (flow cytometry) of IFN-γ and IL-13 in CD8+ T cells differentiated in IL-2 or IL-2+IL-4; type: cell-based, mouse
Protocol: (§1) J. Allergy Clin. Immunol. 121, 864-871 e864 (2008)).
Flow cytometry analyses: For intracellular staining, 1×10^6/ml cells were washed twice with PBS containing 1% BSA, stimulated with 1 μg/ml […] in the presence of 2 μM monensin at 37° C. for 4 hours. After fixation with 4% paraformaldehyde (Electron Microscopy Sciences, Hatfield, Pa.) and permeabilization with 0.1% saponin (Sigma-Aldrich, St. Louis, Mo.), cells were washed twice with PBS containing 1% BSA, then incubated with anti-mouse CD16/CD32 (2.4G2, BD Bioscience, San Jose, Calif.) at 4° C. for 5 minutes, then stained with FITC labeled anti-mouse IFN-γ (XMG 1.2, eBioscience, San Diego, Calif.) and PE-labeled anti-mouse IL-13 (eBio13A, eBioscience, San Diego, Calif.). […] J. Allergy Clin. Immunol. 121, 864-871 e864 (2008)).

[6] = tested on: sensitized and challenged CD8-deficient mice; assay: Secondary allergen challenge model with adoptive transfer of 1,25D3-treated CD8+ T cells: airway function (AHR); type: in vivo, mouse; conditions: transfer of IL-2-differentiated CD8+ T cells cultured with 1,25D3 (100 nM or 1 μM)
Protocol: 190, 4056-4065 (2013).; Ohnishi, H., et al. […] J. Allergy Clin. Immunol. 121, 864-871 e864 (2008)) with some modifications. CD8-deficient mice were sensitized with 20 μg of OVA (Calbiochem, La Jolla, Calif.) emulsified in 2.25 mg of alum (AlumImuject; Pierce, Rockford, Ill.) on days 0 and 14 by intraperitoneal injection. […] Omron Healthcare, Kyoto, JP). […] Airway function was measured and samples were collected 48 hours after the secondary challenge. […] Am. J. Respir. Crit. Care Med. 163, 173-184 (2001)). […] J. Allergy Clin. Immunol. 121, 864-871 e864 (2008)) by measuring changes in airway resistance (RL) in response to increasing doses of inhaled methacholine (MCh, Sigma-Aldrich, St. Louis, Mo.). Data were presented as percentage change from the baseline RL values after saline inhalation.

[7] = tested on: Cyp11a1; assay: qPCR gene expression of Cyp11a1 in CD8+ T cells; type: cell-based, mouse; conditions: 100 nM or 1 μM during differentiation in IL-2+IL-4
Source text: as §1

[8] = tested on: Gata3; assay: qPCR gene expression of Gata3 in CD8+ T cells; type: cell-based, mouse; conditions: IL-4 and 1,25D3 present during CD8+ T-cell differentiation
Source text: as §1

[9] = tested on: sensitized and challenged CD8-deficient mice; assay: Secondary allergen challenge model with adoptive transfer: bronchoalveolar lavage (BAL) fluid analyses; type: in vivo, mouse
Protocol: 190, 4056-4065 (2013).; Ohnishi, H., et al. […] J. Allergy Clin. Immunol. 121, 864-871 e864 (2008)) with some modifications. CD8-deficient mice were sensitized with 20 μg of OVA (Calbiochem, La Jolla, Calif.) emulsified in 2.25 mg of alum (AlumImuject; Pierce, Rockford, Ill.) on days 0 and 14 by intraperitoneal injection. […] Omron Healthcare, Kyoto, JP). […] Airway function was measured and samples were collected 48 hours after the secondary challenge. […] Am. J. Respir. Crit. Care Med. 163, 173-184 (2001)). Bronchoalveolar lavage (BAL) fluid analyses: After measurement of AHR, lungs were lavaged via the tracheal tube with 1 ml of HBSS. […] J. Allergy Clin. Immunol. 121, 864-871 e864 (2008)). […] J. Allergy Clin. Immunol. 121, 864-871 e864 (2008)).

[10] = tested on: Tbx21; assay: qPCR gene expression of Tbx21 in CD8+ T cells; type: cell-based, mouse; conditions: IL-4 and 1,25D3 present during CD8+ T-cell differentiation
Source text: as §1

[11] = tested on: sensitized and challenged CD8-deficient mice; assay: Secondary allergen challenge model with adoptive transfer: lung histology (PAS); type: in vivo, mouse; conditions: recipients of 1,25D3-treated CD8+ T cells
Protocol: 190, 4056-4065 (2013).; Ohnishi, H., et al. […] J. Allergy Clin. Immunol. 121, 864-871 e864 (2008)) with some modifications. CD8-deficient mice were sensitized with 20 μg of OVA (Calbiochem, La Jolla, Calif.) emulsified in 2.25 mg of alum (AlumImuject; Pierce, Rockford, Ill.) on days 0 and 14 by intraperitoneal injection. […] Omron Healthcare, Kyoto, JP). […] Airway function was measured and samples were collected 48 hours after the secondary challenge. […] Am. J. Respir. Crit. Care Med. 163, 173-184 (2001)). Lung histology: […] Paraffin sections (5-μm thick) were stained with periodic acid-Schiff (PAS).

[12] = tested on: CD8+ T cells; assay: Cell viability (total cell numbers) during CD8+ T cell differentiation; type: cell-based, mouse; conditions: IL-2 or IL-2+IL-4; 100 nM or 1 μM; days 0 and 4
Source text: Data (mean±SEM) are from five experiments. **p<0.01 compared to the IL-2 group on day 4.
as §1

[13] = tested on: Cyp11a1; assay: ELISA for pregnenolone in supernatants of CD8+ T cells (CYP11A1 enzymatic activity); type: cell-based, mouse; conditions: cells cultured in the presence of 1,25D3 (100 nM or 1 μM)
Source text: as §1

[14] = IL-2 + IL-4 + TCR + VitD (100 nM)
[15] = IL-2 + IL-4 + TCR + VitD (100 nM), listed as VitD
[16] = IL-2 + IL-4 + TCR + VitD (1 μM)
[17] = cultured with SIINFEKL and IL-2+IL-4, 1,25D3 100 nM, 1 μM during differentiation
[18] = compared to recipients of untreated cells, 1,25D3 100 nM or 1 μM

## CCC1(c2ccc(N)cc2)CCC(=O)NC1=O (stereo not drawn) [AMG, aminoglutethimide]
[1]
  lung allergic responses in sensitized and challenged CD8-deficient mice: failure to restore
[2]
  conversion of CD8+ T cells to IL-13 production: inhibitory effects

## C=C1/C(=C\C=C2/CCC[C@]3(C)[C@@H]([C@H](C)CCCC(C)(C)O)CC[C@@H]23)C[C@@H](O)C[C@@H]1O [1,25D3, 1,25-dihydroxy vitamin D3]
[3]
  in vitro effectiveness in CD4+ T cells from steroid-resistant asthmatics: effective
[4]
  CYP11A1 protein levels: decreased
[5]; 1,25D3 (100 nM or 1 μM) added only during antigen (SIINFEKL) re-stimulation phase, last 4 hours, IL-2+IL-4
  cytokine profiles (IFN-γ and IL-13) of differentiated CD8+ T cells: does not alter; also recorded: unaffected
[5]; [14]
  % of positive cells, IFN-γ+: 24.5±4.8%
  % of positive cells, IFN-ν+ IL-13+: 4%
  % of positive cells, IFN-ν− IL-13−: 55.1%
  % of positive cells, IL-13+: 11.3±4.8%
[5]; [15]
  % of positive cells, IFN-γ+: 24.5%
  % of positive cells, IL-13+: 11.3%
[5]; [16]
  % of positive cells, IFN-γ+: 30.6%
  % of positive cells, IFN-ν+ IL-13+: 3.5%
  % of positive cells, IFN-ν− IL-13−: 53.9%
  % of positive cells, IL-13+: 8.3%
[5]; IL-2 + IL-4 + VitD (100 nM)
  % of positive cells, IFN-γ+: 2.2%
  % of positive cells, IFN-ν+ IL-13+: 0.2%
  % of positive cells, IFN-ν− IL-13−: 92.7%
  % of positive cells, IL-13+: 4.6%
[5]; IL-2 + IL-4 + VitD (1 μM)
  % of positive cells, IFN-γ+: 2.7%
  % of positive cells, IFN-ν+ IL-13+: 0.2%
  % of positive cells, IFN-ν− IL-13−: 92.9%
  % of positive cells, IL-13+: 3.8%
[5]; IL-2 + TCR + VitD (100 nM)
  % of positive cells, IFN-γ+: 76.8%
  % of positive cells, IFN-ν+ IL-13+: 0.4%
  % of positive cells, IFN-ν− IL-13−: 22.6%
  % of positive cells, IL-13+: 0.1%
[5]; IL-2 + TCR + VitD (1 μM)
  % of positive cells, IFN-γ+: 76.2%
  % of positive cells, IFN-ν+ IL-13+: 0.4%
  % of positive cells, IFN-ν− IL-13−: 23.7%
  % of positive cells, IL-13+: 0.1%
[5]; IL-2 + VitD (100 nM)
  % of positive cells, IFN-γ+: 3.1%
  % of positive cells, IFN-ν+ IL-13+: 0%
  % of positive cells, IFN-ν− IL-13−: 96.8%
  % of positive cells, IL-13+: 0.2%
[5]; IL-2 + VitD (1 μM)
  % of positive cells, IFN-γ+: 4.3%
  % of positive cells, IFN-ν+ IL-13+: 0%
  % of positive cells, IFN-ν− IL-13−: 95.8%
  % of positive cells, IL-13+: 0.2%
[5]; [17]
  IFN-γ+ cells (change): increase
  percentage of IL-13+ cells (change): dose-dependent decrease
[5]; differentiated in IL-2 alone, 1,25D3 added during differentiation
  IFN-γ-producing capacity of Tc1 cells: not affected
[6]
  airway hyperresponsiveness (AHR): fails to induce; also recorded: failed to restore
[7]
  CYP11A1 transcript levels: decreased
[8]
  Gata3 gene expression: only marginally altered; also recorded: affected
[9]; [18]
  IL-4 level in BAL fluid: decreased; also recorded: significantly lower
  IL-5 level in BAL fluid: decreased; also recorded: significantly lower
  IL-13 level in BAL fluid: decreased; also recorded: significantly lower
[9]; transfer of IL-2-differentiated CD8+ T cells cultured with 1,25D3 (100 nM or 1 μM)
  airway inflammation (cell composition in BAL fluid): failed to restore
[10]
  Tbx21 gene expression: only marginally altered; also recorded: affected
[11]
  inflammation in lung sections: less inflammation
  numbers of PAS+ mucus-containing goblet cells: prevents; also recorded: significantly decreased numbers
[12]
  effect on cell viability: not altered; also recorded: no significant effect
[13]
  pregnenolone levels in supernatants (CYP11A1 enzymatic activity): markedly reduced; also recorded: decreased
